Laboratory results from patent US9687453B2, “Solid pharmaceutical composition” (KYORIN PHARMACEUTICAL CO., LTD., priority 2013, dated 2017).

Test: pH of acidic substance (2.5% liquid in water, pH meter)
Assay type: physicochemical
Conditions: 50 mg in 1,950 μL of water (concentration 2.5%)
Method: The “acidic substance” described herein is a substance which is dissolved in water to generate hydrogen ions.

## Cl.N[C@@H](CCC(=O)O)C(=O)O [L-glutamic acid hydrochloride]
  pH: ≤ 3.5
